Assay results as given in patent US20220380329A1, “A HYPERBRANCHED POLYGLYCEROL POLYGLYCIDYL ETHER AND ITS USE AS CROSSLINKER FOR POLYSACCHARIDES” (BIOPOLIMERI S.R.L., priority 2019, published 2022).

System: 3T3 mouse fibroblasts
Experiment: MTT viability assay, cells grown in direct contact with the crosslinker
Format: cell-based
Conditions: direct contact with cross-linker solutions of same epoxy equivalents, without polysaccharide; control culture medium in NaCl 0.9%
Procedure: MTT assay was used to evaluate the viability of 3T3 mouse fibroblasts grown.
c) MTT assay on cells grown in direct contact with the crosslinker
The MTT assay was performed on cells grown in direct contact with a solution containing cross-linker solutions. The solution contains the same epoxy equivalents, following the same steps of the manufacturing process of hydrogels—such as chemical reaction, washing and sterilization, but without the addition of the polysaccharide.

In the case of `C(CCOCC1CO1)COCC1CO1` (stereo not shown) [BDDE, 1,4-butane diol diglycidyl ether], the “cell viability (MTT)” value is reported as “significant decrease of cells viability and signs of suffering”.
